Data reported in patent publication US20060159715A1, “Conjugate of fine porous particles with polymer molecules and the utilization thereof” (priority 2003, published 2006).

Details: L-DOPA added after three-hour incubation in phosphate buffer; FIG. 5
Text: Hydroquinone was supported on conjugate in the same manner as in Example 4 except that hydroquinone was used in place of pyrene. Hydroquinone and clay particles-supported hydroquinone were examined for the resistance to the oxidation of L-DOPA.

SMILES: Oc1ccc(O)cc1 [hydroquinone, Hydroquinone]
- antioxidation property against L-DOPA oxidation: completely lost antioxidation property
